Test results taken from ChEMBL document CHEMBL6103564, “Selective Degradation of TEADs by a PROTAC Molecule Exhibited Robust Anticancer Efficacy In Vitro and In Vivo” (J Med Chem, 2025).

Assays:
in vivo [1] = conditions: ICR, mouse, iv, 5 mg/kg
in vivo [2] = conditions: ICR, mouse, iv, 5 mg/kg; remark: listed apart in the source
in vivo [3] = conditions: ICR, mouse, iv, 5 mg/kg; remark: listed apart in the source
in vivo [4] = conditions: ICR, mouse, iv, 5 mg/kg; remark: listed apart in the source
in vivo [5] = conditions: ICR, mouse, iv, 5 mg/kg; remark: listed apart in the source
in vivo [6] = conditions: ICR, mouse, iv, 5 mg/kg; remark: listed apart in the source
in vivo [7] = conditions: ICR, mouse, iv, 5 mg/kg; remark: listed apart in the source
in vivo [8] = conditions: ICR, mouse, ip, 10 mg/kg
in vivo [9] = conditions: ICR, mouse, ip, 10 mg/kg; remark: listed apart in the source
in vivo [10] = conditions: ICR, mouse, ip, 10 mg/kg; remark: listed apart in the source
in vivo [11] = conditions: ICR, mouse, ip, 10 mg/kg; remark: listed apart in the source
in vivo [12] = conditions: ICR, mouse, ip, 10 mg/kg; remark: listed apart in the source
in vivo [13] = conditions: ICR, mouse, po, 10 mg/kg
in vivo [14] = conditions: ICR, mouse, po, 5 mg/kg
in vivo [15] = conditions: ICR, mouse, po, 5 mg/kg; remark: listed apart in the source
in vivo [16] = conditions: ICR, mouse, po, 5 mg/kg; remark: listed apart in the source
in vivo [17] = conditions: ICR, mouse, po, 5 mg/kg; remark: listed apart in the source

half-life (in vivo [1]): 116 min | AUC(0-t) (in vivo [2]): 1220 ng·h/mL | AUC(0-inf) (in vivo [3]): 1240 ng·h/mL | Vd (in vivo [4]): 11.5 L/kg | clearance (in vivo [5]): 70.6 mL/min/kg | Vd (in vivo [6]): 3.79 L/kg | MRT (in vivo [7]): 41.4 min | half-life (in vivo [8]): 161 min | Cmax (in vivo [9]): 1160 ng/mL | AUC(0-t) (in vivo [10]): 2960 ng·h/mL | AUC(0-inf) (in vivo [11]): 3000 ng·h/mL | MRT (in vivo [12]): 2.76 h | bioavailability (in vivo [13]): 121% | Cmax (in vivo [14]): 7.86 ng/mL | AUC(0-t) (in vivo [15]): 5.39 ng·h/mL | MRT (in vivo [16]): 30.6 min | bioavailability (in vivo [17]): 0.44%
Structure (SMILES): COCCOc1ccc(C(N)=O)c(-c2c(Cl)ccc3c2C[C@@](CNCCC2CCN(c4ccc5c(c4)C(=O)N(C4CCC(=O)NC4=O)C5=O)CC2)(c2ccccc2)O3)c1F (some centres not stated)
